{
  "source": "patent US5217997A",
  "about": "“Use of L-arginine in the treatment of hypertension and other vascular disorders” (priority 1992, dated 1993)",
  "key": {"[1]": {"system": "spontaneous hypertensive rats", "test": "Tail blood pressure of 7-week-old spontaneous hypertensive rats after L- or D-arginine hydrochloride (Example 1)", "type": "in vivo, rat", "procedure": "(§1) Male spontaneous hypertensive rats and Wistar Kyoto rats were purchased from Charles River (Wilmington, Mass.) and were fed and housed under identical conditions for at least five days before use. The rats were caged in groups of three with food and water ad libitum under an artificial light-dark cycle of twelve hours.\n(§2) L- and D-arginine hydrochloride were obtained from Aldrich (Milwaukee, Wis.). Forty-five-day-old spontaneous hypertensive rats were injected with L-arginine hydrochloride, 5, 16, 50, 80, 100 and 500 mg/kg body weight, or D-arginine-hydrochloride, 80 and 100 mg/kg body weight, intraperitoneally,in a final volume of 1.0 ml buffered saline for four consecutive days. The control spontaneous hypertensive rats and Wistar Kyoto rats were injected with saline. Forty-five day old Wistar Kyoto strain rats were injected with 50 mg/kg body weight of L-arginine hydrochloride for four days. Each group consisted of four or five experimental animals. Blood pressure from the tail was measured before the first injection and twenty-four hours after the last arginine administration. Blood pressure was measured with anesthesia, using a pletysmograph.\n(§3) Results are expressed as the means ±SEM. A two-way analysis of variance was performed to compare blood values between control, L-arginine and D-arginine treated spontaneous hypertensive rats. Specific differences between groups were tested by the Newman-Keuls test. The null hypothesis was rejected when the p value was less than 0.05.\n(§4) The blood pressure of 7-week-old spontaneous hypertensive rats and Wistar Kyoto rats was monitored before and after administration of L- and D-arginine. […] At a dose as low as 16 mg/kg body weight, L-arginine lowered blood pressure by 10 mm Hg […]."}, "Wistar Kyoto rats": {"system": "Wistar Kyoto rats", "test": "Tail blood pressure of age-matched Wistar Kyoto rats after L- or D-arginine hydrochloride (Example 1)", "type": "in vivo, rat", "details": "for effect on blood pressure: age-matched normotensive Wistar Kyoto rats", "procedure": "as §1, §2, §3, §4\nFor example, blood pressure of 7-week-old Wistar Kyoto rats remained unchanged following four days of treatment with L-arginine (50 mg/kg body weight), 122.3±1.3 mm Hg vs. 124.5±1.7 mm Hg for control and treated, respectively, n=3."}, "[2]": {"system": "spontaneous hypertensive rats", "test": "Systolic blood pressure in 7-week-old SHR, heme vs. arginine component and heme oxygenase inhibitor (Table 3)", "type": "in vivo, rat", "details": "for reduction of blood pressure: \"same dose (15 mg/kg body weight)\", control increased by 7.7 mmHg; for Systolic blood pressure, after treatment: n=5, 4 days, heme-L-arginate = 15 mg hemin + 16 mg L-arginine per kg, hemin 15, L-arginine 16, ZnDPBG 7 mg/kg, 23 hours after last injection, *p<0.005 vs control 166.0±2.7; for Systolic blood pressure, after treatment / Systolic blood pressure, before treatment: ±SD; for Systolic blood pressure, before treatment: n=5, baseline", "procedure": "Applicants further examined whether the effect is due to heme or to the arginine component of heme arginate. In separate experiments, applicants treated 7-week-old spontaneous hypertensive rats with heme-L-arginate, hemin alone and L-arginine alone at the same dose (15 mg/kg body weight). […] At the same period, blood pressure in control spontaneous hypertensive rats increased by 7.7 mmHg.\nSystolic blood pressure was measured by tail cuff pletysmograph before and 23 hours after the last injection. Results are the same ±SD, n=5 in each group; significance from control spontaneous hypertensive rats after 4 days of treatment with the vehicle (166.0±2.7), *p<0.005."}, "anesthetized rabbit": {"system": "anesthetized rabbit", "details": "cited from earlier work"}, "renal cytochrome P-450": {"system": "renal cytochrome P-450", "details": "in vivo; cited from earlier work"}, "[3]": {"system": "spontaneous hypertensive rats", "details": "young SHR; cited from earlier work"}},
  "note": "“Also recorded” adds a separate entry of the source. Where two headings read alike, the source gives them in different places.",
  "data": [
    {"compound": "N=C(N)NCCC[C@@H](N)C(=O)O", "note": "[D-arginine]", "values": [
      {"measurement": "effect on blood pressure", "setting": "[1]; 80 and 100 mg/kg body weight, four days, 7-week-old SHR", "value": "did not effect the blood pressure; also recorded: had no effect on blood pressure"},
      {"measurement": "effect on blood pressure", "setting": "[1]; concentrations lower than 80 mg/kg body weight, SHR", "value": "did not alter blood pressure"},
      {"measurement": "effect on blood pressure", "setting": "Wistar Kyoto rats", "value": "Neither L-arginine nor D-arginine had any effect on blood pressure"}
    ]},
    {"compound": "N=C(N)NCCC[C@H](N)C(=O)O", "note": "[L-arginine, 2-amino-5-guanidinovaleric acid]", "values": [
      {"measurement": "decrease in blood pressure", "setting": "[1]; 16 mg/kg body weight i.p., four consecutive days, 7-week-old SHR", "value": 10, "unit": "mm Hg"},
      {"measurement": "maximal effect, decrease in blood pressure", "setting": "[1]; 100 mg/kg body weight (maximal dose) i.p., four days, 7-week-old SHR", "value": 30, "unit": "mm Hg"},
      {"measurement": "effect on blood pressure", "setting": "[1]; 5-500 mg/kg i.p., four days, 7-week-old SHR", "value": "dose-dependent decrease in blood pressure"},
      {"measurement": "overall reduction of blood pressure", "setting": "[1]; at the maximal dose, young SHR", "value": 20, "unit": "%"},
      {"measurement": "effect on blood pressure of higher doses", "setting": "[1]; doses higher than 100 mg/kg, 7-week-old SHR", "value": "did not lower blood pressure further"},
      {"measurement": "blood pressure, treated", "setting": "Wistar Kyoto rats; 50 mg/kg body weight, four days, 7-week-old WKY, n=3, ±SEM, control 122.3±1.3", "value": "124.5±1.7", "unit": "mm Hg"},
      {"measurement": "effect on blood pressure", "setting": "Wistar Kyoto rats", "value": "Neither L-arginine nor D-arginine had any effect on blood pressure; also recorded: no effect was documented in normotensive rats"},
      {"measurement": "reduction of blood pressure", "setting": "[2]", "value": 9.7, "unit": "mmHg"},
      {"measurement": "Systolic blood pressure, after treatment", "setting": "[2]", "value": "144.4 ± 3.0", "unit": "mmHg"},
      {"measurement": "Systolic blood pressure, before treatment", "setting": "[2]", "value": "154.1 ± 4.5", "unit": "mmHg"},
      {"measurement": "effect on the inhibition of N-monomethyl-L-arginine", "setting": "anesthetized rabbit; L-arginine administration", "value": "abolished the inhibition of N-monomethyl-L-arginine within fifteen minutes"}
    ]},
    {"compound": "CN=C(N)NCCC[C@H](N)C(=O)O", "note": "[N-monomethyl-L-arginine]", "values": [
      {"measurement": "effect on mean arterial blood pressure", "setting": "anesthetized rabbit", "value": "dose-dependent increase in mean arterial blood pressure"}
    ]},
    {"compound": "[Cl][Sn][Cl]", "note": "[SnCl2]", "values": [
      {"measurement": "effect on renal cytochrome P-450", "setting": "renal cytochrome P-450", "value": "depletion of renal cytochrome P-450"},
      {"measurement": "effect on blood pressure", "setting": "[3]", "value": "marked decrease in blood pressure"}
    ]},
    {"compound": "Hemin", "values": [
      {"measurement": "reduction of blood pressure", "setting": "[2]", "value": 14.3, "unit": "mmHg"},
      {"measurement": "Systolic blood pressure, after treatment", "setting": "[2]", "value": "142.2 ± 2.4", "unit": "mmHg"},
      {"measurement": "Systolic blood pressure, before treatment", "setting": "[2]", "value": "156.5 ± 3.3", "unit": "mmHg"}
    ]},
    {"compound": "Zn-2,4-deuteropophyrin IX bis glycol [ZnDPBG]", "values": [
      {"measurement": "effect on blood pressure", "setting": "[2]; inhibitor alone", "value": "did not have any effect on blood pressure"},
      {"measurement": "Systolic blood pressure, after treatment", "setting": "[2]", "value": "169.1 ± 2.5", "unit": "mmHg"},
      {"measurement": "Systolic blood pressure, before treatment", "setting": "[2]", "value": "154.0 ± 4.0", "unit": "mmHg"}
    ]}
  ]
}
